Data reported in ChEMBL document CHEMBL5506058, “Discovery of Quinazoline and Quinoline-Based Small Molecules as Utrophin Upregulators via AhR Antagonism for the Treatment of Duchenne Muscular Dystrophy” (J Med Chem, 2024).
In brackets after ≈: the same amount, converted by molar mass. One block for each molecule: values may come before it. Activity calls are given as the source filed them. The rule behind the calls is not given here.

What was measured:
C2C12 [1] = experiment: Cytotoxicity against mouse C2C12 cells assessed as reduction in cell viability at 0.78 to 100 uM measured after 24 hrs by MTT assay; format: toxicity, cell-based; conditions: c2c12, 24 h, dose 0.78-100 µM
[2] = Upregulation of utrophin expression in mouse C2C12 cells assessed as fold increase at 800 nM measured after 72 hrs by In-cell ELISA method; format: functional
C2C12 [3] = experiment: Upregulation of utrophin mRNA expression in mouse C2C12 cells at 800 nM measured after 72 hrs by qRT-PCR analysis; format: functional, cell-based
C2C12 [4] = experiment: Upregulation of utrophin mRNA expression in mouse C2C12 level measured after 72 hrs by qRT-PCR analysis; format: functional, cell-based; conditions: dose 200-800 nM
C2C12 [5] = experiment: Upregulation of utrophin protein expression in mouse C2C12 level measured after 72 hrs by Westernblot analysis; format: functional, cell-based; conditions: dose 200-800 nM
[6] = Upregulation of utrophin protein expression in mouse C2C12 cells assessed as fold increase at 800 nM measured after 72 hrs by Western blot analysis; format: functional
[7] = Upregulation of utrophin mRNA expression in mouse C2C12 cells assessed as fold increase at 800 nM measured after 72 hrs by qRT-PCR analysis; format: functional
[8] = Upregulation of utrophin protein expression in human patient derived KM1328 cells assessed as fold increase at 800 nM measured after 72 hrs by Western blot analysis; format: functional
[9] = Binding affinity to recombinant AhR/ARNT (unknown origin) assessed as dissociation constant incubated for 30 mins by fluorescence quenching analysis; set-up: species or system Homo sapiens
[10] = Aqueous solubility of the compound in DMSO measured after 2 hrs by turbidity assay; format: physicochemical
[11] = Metabolic stability in rat liver microsomes assessed as intrinsic clearance at 5 uM preincubated for 5 mins followed by NADPH addition and measured upto 60 mins by LC-MS analysis; format: ADME, Microsome; conditions: time < 65 min, read-out: CLH
[12] = Stability in human plasma assessed as remaining compound at 50 uM measured after 2 hrs by LC-MS and HPLC analysis; format: ADME, cell-free; conditions: read-out: Stability
[13] = Stability in human serum assessed as remaining compound at 50 uM measured after 2 hrs by LC-MS and HPLC analysis; format: ADME, cell-free; conditions: read-out: Stability
[14] = Lipophilicity, logD of the compound in cyclohexane/PBS at pH 7.4 measured after 1 hr by LC-MS and HPLC analysis; format: physicochemical; conditions: pH 7.4, 1 h
[15] = Lipophilicity, logD of the compound in octanol/PBS at pH 7.4 measured after 1 hr by LC-MS and HPLC analysis; format: physicochemical
Homo sapiens = species: Homo sapiens; experiment: Binding affinity to recombinant AhR/ARNT (unknown origin) assessed as binding constant incubated for 30 mins by fluorescence quenching analysis; conditions: filed as antagonist
[16] = target: T1, Aryl hydrocarbon receptor (Mus musculus, UniProt P30561); experiment: Induction of AhR nuclear translocation in mouse C2C12 cells at 800 nM measured after 2 hrs by Hoechst 33258 staining based fluorescence microscopy analysis; format: cell-based; conditions: c2c12, 2 h, 0.8 µM
T1 sequence (P30561 whole entry): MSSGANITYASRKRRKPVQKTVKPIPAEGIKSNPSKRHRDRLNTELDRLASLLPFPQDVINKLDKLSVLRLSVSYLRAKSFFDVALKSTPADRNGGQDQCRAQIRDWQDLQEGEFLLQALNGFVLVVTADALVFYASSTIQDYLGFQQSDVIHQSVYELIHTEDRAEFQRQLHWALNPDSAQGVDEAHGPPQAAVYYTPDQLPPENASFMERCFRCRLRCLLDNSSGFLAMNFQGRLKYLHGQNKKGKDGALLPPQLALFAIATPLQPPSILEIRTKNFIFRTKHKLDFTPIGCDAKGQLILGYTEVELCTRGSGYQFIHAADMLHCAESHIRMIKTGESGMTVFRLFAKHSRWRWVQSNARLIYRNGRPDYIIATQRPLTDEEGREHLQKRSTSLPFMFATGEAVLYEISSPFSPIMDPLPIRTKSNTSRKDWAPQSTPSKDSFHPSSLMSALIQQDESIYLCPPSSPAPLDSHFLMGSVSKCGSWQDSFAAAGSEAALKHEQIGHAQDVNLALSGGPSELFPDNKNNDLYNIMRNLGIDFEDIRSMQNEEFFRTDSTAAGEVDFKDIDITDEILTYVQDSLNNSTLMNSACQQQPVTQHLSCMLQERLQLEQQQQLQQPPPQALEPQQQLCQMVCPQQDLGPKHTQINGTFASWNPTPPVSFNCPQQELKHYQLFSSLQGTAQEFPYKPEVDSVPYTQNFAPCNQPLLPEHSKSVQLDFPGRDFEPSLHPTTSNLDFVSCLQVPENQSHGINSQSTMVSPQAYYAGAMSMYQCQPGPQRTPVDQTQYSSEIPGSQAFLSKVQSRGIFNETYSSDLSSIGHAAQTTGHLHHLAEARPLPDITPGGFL

[17] = target: T1, Aryl hydrocarbon receptor; experiment: Antagonist activity at AhR in mouse C2C12 cells assessed as reduction in ITE induced AhR nuclear translocation at 800 nM measured after 2 hrs by Hoechst 33258 staining based fluorescence microscopy analysis; format: cell-based; conditions: c2c12, 2 h, 0.8 µM
[18] = target: T1, Aryl hydrocarbon receptor; experiment: Antagonist activity at AhR in mouse C2C12 cells assessed as reversal of TCDD inhibited myogenesis by measuring fold change at 800 nM measured after 7 days by Hoechst 33258 staining based fluorescence microscopy analysis; format: cell-based; conditions: c2c12, 168 h, 0.8 µM, time 7 day
[19] = Upregulation of utrophin expression in mouse C2C12 cells assessed as fold increase at 3 uM measured after 72 hrs by In-cell ELISA method; format: functional
[20] = Upregulation of utrophin protein expression in human patient derived KM1328 cells assessed as fold increase at 3 uM measured after 72 hrs by […]; format: functional
[21] = target: T1, Aryl hydrocarbon receptor; experiment: Antagonist activity at AhR in mouse C2C12 cells assessed as reduction in ITE induced AhR nuclear translocation measured after 2 hrs by Hoechst 33258 staining based fluorescence microscopy analysis; format: cell-based; conditions: c2c12, 2 h

Kd [9]: 41.7 nM | solubility kinetic at 2 h [10]: 30 µM (≈ 9.94 µg/mL) | microsomal CLint at 5 µM [11]: 6.66 µL/min/mg | remaining at 2 h, 50 µM [12]: 69.2% | remaining at 2 h, 50 µM [13]: 70% | logD [14]: 0.2 | logD at 1 h [15]: 2.46 | Ka (Homo sapiens): 24 µM⁻¹ | Activity [16]: Not Active | Activity [17]: Active | fold change (FC) [18]: 2
Structure (SMILES): CS(=O)(=O)c1ccc2nc(NCc3ccc(F)cc3)ncc2c1
Activity (C2C12 [1]): Toxic | fold change (FC) [2]: 2.14 | Activity (C2C12 [3]): Active | Activity (C2C12 [4]): Dose-Dependent Effect | Activity (C2C12 [5]): Dose-Dependent Effect | fold change (FC) [6]: 2.72 | fold change (FC) [7]: 2.11 | fold change (FC) [8]: 2.3

Activity [21]: Not Active
Structure (SMILES): O=C(/C=C/C=C/c1ccc2c(c1)OCO2)N1CCCCC1 [PIPERINE]
fold change (FC) [19]: 1.3 | fold change (FC) [20]: 0.99
